Columns and labels:
[1] = test system: RPE1-hTERT TP53−/− RNASEH2B−/− cells; assay: 6-day CTG viability assay, RPE1-hTERT TP53−/− RNASEH2B−/− cells; assay type: cell-based; conditions: Compound 43 combined with niraparib; compared with Compound 121 plus niraparib; FIGS. 3A and 3B
Method: Viability was measured with a 6-day CTG assay. Mean of three independent experiments±SD. Solid lines, non-linear least squares fit to a four-parameter dose-response model. IC50 values are indicated below panels. […] Viability was measured with a 6-day CTG assay. Mean of three independent experiments±SD. Solid lines, non-linear least squares fit to a four-parameter dose-response model. IC50 values are indicated below panels.

[2] = test system: DLD1 BRCA2−/− cells; assay: 48 h treatment, CTG viability, DLD1 BRCA2−/− cells; assay type: cell-based; conditions: 48-hr treatment with combination of Compound 121 and talazoparib; FIGS. 8A and 8B
Method: (§1) FIG. 8A is a chart showing dose response curves of DLD1 BRCA2+/+ cells to talazoparib in the absence (DMSO) or presence of indicated concentrations of Compound 121. Cells were treated for 48 h, followed by removal of the compounds and growth in fresh media. Viability was measured at day 6 by a CTG assay. Mean of three independent experiments±SD. Solid lines, non-linear least squares fit to a four-parameter dose-response model. IC50 values are indicated below panels.
as §1, with “8B” for “8A”, “BRCA2−/−” for “BRCA2+/+”, “9” for “6”

[3] = test system: 5637 RNASEH2B+/+ cells; assay: ZIP synergy matrix and 7-day CTG viability assay, 5637 RNASEH2B+/+ cells; assay type: cell-based; conditions: combination of Compound 121 and niraparib, FIG. 1A
Method: (§2) FIG. 1A is chart showing ZIP synergy score matrix in RNASEH2B+/+ cells. […] Score of >10 indicates synergy, while <(−10) indicates antagonism. Dashed lines represent the IC50 value of each compound in the respective cell line. […] Viability was measured with a 7-day CTG assay. Mean of three independent experiments±SD. Solid lines, non-linear least squares fit to a four-parameter dose-response model. IC50 values are indicated below panels. […] Viability was measured with a 7-day CTG assay. Mean of three technical replicates±SD. Solid lines, non-linear least squares fit to a four-parameter dose-response model. IC50 values are indicated below panels.

[4] = test system: ALT-positive (ALT+) cancer cell lines; assay: Cell viability of ALT+ and ALT− cancer cell line panels; assay type: cell-based; conditions: combination of low-nanomolar doses of Compound 121 and talazoparib; five ALT+ lines; FIGS. 9A and 9B
Method: FIG. 9A is a chart showing cell viability for ALT+ and ALT− cell lines that were untreated, treated with talazoparib alone, treated with compound 121 alone, or treated with a combination of talazoparib and compound 121.
FIG. 9B is a chart showing the cell viability for ALT+ and ALT− cells that were treated with a combination of talazoparib and compound 121.

[5] = test system: 5637 RNASEH2B−/− cells; assay: ZIP synergy matrix and 7-day CTG viability assay, 5637 RNASEH2B−/− cells; assay type: cell-based; conditions: for concentration at maximum synergy, lower in RNASEH2B−/− than in RNASEH2B+/+ cells: FIGS. 1A and 1B
Method: as §2, with “1B” for “1A”, “RNASEH2B−/−” for “RNASEH2B+/+”

[6] = test system: MIAPACA2 ATM−/− cells; assay: 48 h treatment, CTG viability at day 6, MIAPACA2 ATM−/− cells; assay type: cell-based; conditions: 48 h treatment with combination of niraparib and Compound 121; MIAPACA2 ATM CRISPR knockout; FIGS. 6A and 6B
Method: (§3) Cells were treated for 48 h, followed by removal of the compounds and growth in fresh media. Viability was measured at day 6 by a CTG assay. Mean of three technical replicates±SD. Solid lines, non-linear least squares fit to a four-parameter dose-response model. IC50 values are indicated below panels. […] Cells were treated for 48 h, followed by removal of the compounds and growth in fresh media. Viability was measured at day 6 by a CTG assay. Mean of three technical replicates±SD. Solid lines, non-linear least squares fit to a four-parameter dose-response model. IC50 values are indicated below panels.

[7] = test system: RPE1-hTERT TP53−/− CDK12−/− cells; assay: 48 h treatment, CTG viability at day 6, RPE1-hTERT TP53−/− CDK12−/− cells; assay type: cell-based; conditions: 48-hr treatment with combination of Compound 121 and niraparib; FIGS. 7A and 7B
Method: as §3, with “independent experiments±SD.” for “technical replicates±SD.”

[8] = test system: 5637 RNASEH2B+/+ and −/− cells; conditions: FIG. 5B
Method: FIG. 5A is a scheme showing the experimental design. 5637 cells were treated with niraparib alone or niraparib combined with an IC50 concentration of Compound 121 for indicated times with or without removal of compounds. Cell viability was analyzed by a CellTiter Glo (CTG) assay 168 h post treatment.
FIG. 5B is a chart showing apparent niraparib IC50 values in 5637 RNASEH2B+/+ and −/− cells from experiments described in FIG. 5A. Values were obtained by fitting mean data from three independent experiments to a four-parameter dose-response model. Error bars, 95% confidence interval (CI).
To guide the combined dosing of Compound 121 and niraparib in RNASEH2B-deficient tumor cells, a continuous 168 h concomitant treatment of 5637 RNASEH2B+/+ and −/− cells with both compounds was compared to either a 48 or 72 h treatment followed by removal of compounds and growth in drug-free media (FIG. 5A).

[9] = combination of Compound 121 and niraparib, 5637 cells

| apparent IC50 value of niraparib ([8]; in presence of Compound 121 (IC50 concentration), dosed continuously for 168 h) | difference in apparent IC50 values of niraparib when treatment shortened ([8]; with Compound 121, 72 or 48 h treatment then drug-free media vs 168 h continuous) | SMILES | sensitization of RNASEH2B-deficient cells [1] | sensitization of isogenic cell line lacking BRCA2 [2] | synergy with niraparib (ZIP synergy score) [3] | sensitivity of ALT+ panel relative to ALT− control panel [4] | sensitization of RNASEH2B-deficient cells ([5]; Compound 121 combined with talazoparib, 5637 cells, 7-day CTG, FIGS. 4A and 4B) | synergy with niraparib (ZIP synergy score) ([5]; combination of Compound 121 and niraparib, 5637 RNASEH2B−/− cells, FIG. 1B) | concentration at maximum synergy, lower in RNASEH2B−/− than in RNASEH2B+/+ cells [5, 9] | synergistic sensitization of ATM−/− clone [6] | sensitization of isogenic cell line lacking CDK12 [7] | shift of apparent IC50 of niraparib from RNASEH2B+/+ to RNASEH2B−/− cells ([5]; in presence of Compound 121, 5637 cells, 7-day CTG, FIGS. 2A and 2B) |
| --- | --- | --- | --- | --- | --- | --- | --- | --- | --- | --- | --- | --- |
| – | – | C[C@@H]1COCCN1c1cc(-c2ccccc2S(C)(=O)=O)c2cnn(-c3cc[nH]n3)c2n1 [Compound 43] | sensitized RNASEH2B-deficient cells to a similar extent | – | – | – | – | – | – | – | – | – |
| – | – | C[C@@H]1COCCN1c1cc([C@@]2(O)C[C@H]3CC[C@@H](C2)O3)c2cnn(-c3cc[nH]n3)c2n1 [Compound 121] | – | synergistically sensitized | strongly synergized | more sensitive | strong sensitization | strongly synergized | ca. three-fold | > 300 × | synergistically sensitized | – |
| decreased | No significant difference | NC(=O)c1cccc2cn(-c3ccc([C@@H]4CCCNC4)cc3)nc12 [niraparib, reference compound] | – | – | – | – | – | – | ca. ten-fold | – | – | ≤ 200 fold |
